Each structure is given as a SMILES string.

Type in all cases: functional, Cercopithecidae
Assay [1] relates to Monkey. As to the kind of experiment: Compound was evaluated for the dose producing 95% suppression of the twitch response in male Rhesus Monkey.
Assay [2] deals with Monkey. As to the kind of experiment: Compound was evaluated for the time from injection to recovery of the twitch to 95% of baseline at the ED95 dose.
The subject of assay [3] is Monkey. In words: Compound was evaluated for the time from injection to peak inhibition of the twitch response at the ED95 dose.
Assay [4] has as its system Monkey. In words: Compound was evaluated for the time from injection to recovery of the twitch to 95% of baseline at 0.4 mg/kg dose.
Assay [5] deals with Monkey. In words: Compound was evaluated for the time from injection to recovery of the twitch to 95% of baseline at 0.2 mg/kg dose.
The test system of assay [6] is Monkey. As to the kind of experiment: Compound was evaluated for the time from injection to peak inhibition of the twitch response at 0.2 mg/kg dose.
In assay [7] the test system is Monkey. In words: Compound was evaluated for the time from injection to peak inhibition of the twitch response at 0.4 mg/kg dose.
[8] abbreviates: Cercopithecidae, in Macaca mulatta, read-out: ED95.

For `COc1cc2c(cc1OC)[C@@H](c1cc(OC)c(OC)c(OC)c1)[N@+](C)(CCCOC(=O)/C(Cl)=C/C(=O)OCCC[N@+]1(C)CCc3cc(OC)c(OC)cc3[C@H]1Cc1cc(OC)c(OC)c(OC)c1)CC2.[Cl-].[Cl-]`, the ED95 with Monkey [1] (setting [8]) was 0.31 mg/kg. The compound also yielded a Duration in the assay with Monkey [2] of 3.7 min. In the assay on Monkey [3], this compound returned an Onset of 37 s.

Turning to `COc1cc2c(cc1OC)[C@H](c1cc(OC)c(OC)c(OC)c1)[N@@+](C)(CCCOC(=O)/C=C(\Cl)C(=O)OCCC[N@@+]1(C)CCc3cc(OC)c(OC)cc3[C@@H]1c1cc(OC)c(OC)c(OC)c1)CC2.[Cl-].[Cl-]`, the ED95 in the assay with Monkey [1] (setting [8]) is 8.5 mg/kg. Also, the Duration in the assay with Monkey [2] is 11.2 min. This compound displayed an Onset with Monkey [3] of 55 s.

For `COc1cc2c(cc1OC)[C@@H](Cc1cc(OC)c(OC)c(OC)c1)[N@+](C)(CCCOC(=O)/C=C(\Cl)C(=O)OCCC[N@+]1(C)CCc3cc(OC)c(OC)cc3[C@H]1Cc1cc(OC)c(OC)c(OC)c1)CC2.[Cl-].[Cl-]`, the Duration turned out to be 13.4 min with Monkey [4], 8.7 min with Monkey [2] and 9.78 min in the assay with Monkey [5]. The ED95 in the assay on Monkey [1] (setting [8]) came out at 0.109 mg/kg. Besides, the Onset in the assay with Monkey [6] is 36 s; in the assay with Monkey [3] it was 73 s; in the assay with Monkey [7] it was 23 s.

As for `COc1cc2c(cc1OC)[C@H](c1cc(OC)c(OC)c(OC)c1)[N@@+](C)(CCCOC(=O)/C(Cl)=C/C(=O)OCCC[N@+]1(C)CCc3cc(OC)c(OC)cc3[C@H]1Cc1cc(OC)c(OC)c(OC)c1)CC2.[Cl-].[Cl-]`, the ED95 in the assay on Monkey [1] (setting [8]) amounted to 0.25 mg/kg. This compound also came in with a Duration in the assay with Monkey [2] of 3.4 min. For the same compound, in the assay on Monkey [3], the Onset amounted to 52 s.

`COc1cc2c(cc1OC)[C@@H](c1cc(OC)c(OC)c(OC)c1)[N@+](C)(CCCOC(=O)/C=C/C(=O)OCCC[N@+]1(C)CCc3cc(OC)c(OC)cc3[C@H]1c1cc(OC)c(OC)c(OC)c1)CC2.[Cl-].[Cl-]`: the ED95 with Monkey [1] (setting [8]) is 1.55 mg/kg. The compound further came in with a Duration in the assay on Monkey [2] of 25.5 min. In the assay with Monkey [3], the Onset stood at 144 s.

Take `COc1cc2c(cc1OC)[C@@H](c1cc(OC)c(OC)c(OC)c1)[N@+](C)(CCCOC(=O)/C=C(\Cl)C(=O)OCCC[N@+]1(C)CCc3cc(OC)c(OC)cc3[C@H]1c1cc(OC)c(OC)c(OC)c1)CC2.[Cl-].[Cl-]`: the ED95 with Monkey [1] (setting [8]) worked out at 1.79 mg/kg. For the same compound, the Duration with Monkey [2] was found to be 5.1 min. Moreover, the Onset in the assay with Monkey [3] was determined as 46 s.

Take `COc1cc2c(cc1OC)[C@H](c1cc(OC)c(OC)c(OC)c1)[N@@+](C)(CCCOC(=O)/C=C(\Cl)C(=O)OCCC[N@+]1(C)CCc3cc(OC)c(OC)cc3[C@H]1Cc1cc(OC)c(OC)c(OC)c1)CC2.[Cl-].[Cl-]` (stereo in doubt; 6a) [GANTACURIUM CHLORIDE]: the Duration turned out to be 10 min with Monkey [4] (0.4 mg/kg) and 8.46 min with Monkey [5] (0.2 mg/kg). In the assay with Monkey [1], this compound came in with an ED95 of 0.063 mg/kg. Besides, the Onset in the assay on Monkey [6] (0.2 mg/kg) is recorded as 38 s; in the assay on Monkey [3] it was 88 s; in the assay with Monkey [7] (0.4 mg/kg) it was 25 s.

Regarding `COc1cc2c(cc1OC)[C@H](c1cc(OC)c(OC)c(OC)c1)[N@@+](C)(CCCOC(=O)/C=C(\Cl)C(=O)OCCC[N@+]1(C)CCc3cc(OC)c(OC)cc3[C@H]1Cc1cc(OC)c(OC)c(OC)c1)CC2.[Cl-].[Cl-]` (stereo in doubt; 6ab) [GANTACURIUM CHLORIDE], the Duration was found to be 8.7 min in the assay with Monkey [4] (0.4 mg/kg), 5.6 min with Monkey [2] and 7.1 min with Monkey [5] (0.2 mg/kg). Further, the ED95 in the assay on Monkey [1] is 0.163 mg/kg. Further, the figures for the Onset in the assay on Monkey [6] (0.2 mg/kg), in the assay on Monkey [3] and with Monkey [7] (0.4 mg/kg) were 44 s, 51 s and 27 s, respectively.

For the compound `COc1cc2c(cc1OC)[C@@H](Cc1cc(OC)c(OC)c(OC)c1)[N+](C)(CCCOC(=O)CC/C=C/CCC(=O)OCCC[N+]1(C)CCc3cc(OC)c(OC)cc3[C@H]1Cc1cc(OC)c(OC)c(OC)c1)CC2.[Cl-].[Cl-]` (stereo partly specified) [MIVACURIUM CHLORIDE], the ED95 in the assay on Monkey [1] (setting [8]) stood at 0.062 mg/kg. This compound also gave a Duration with Monkey [2] of 12 min. The Onset with Monkey [3] is reported as 107 s.

Consider `C[N+](C)(C)CCOC(=O)CCC(=O)OCC[N+](C)(C)C.[Cl-].[Cl-]` [SUCCINYLCHOLINE CHLORIDE], for which the ED95 in the assay on Monkey [1] (setting [8]) came to 1.29 mg/kg. Further, in the assay on Monkey [2], the Duration amounted to 5 min. The same compound showed an Onset in the assay with Monkey [3] of 50 s.

Source of the values: ChEMBL document CHEMBL1132411, “Bis- and mixed-tetrahydroisoquinolinium chlorofumarates: new ultra-short-acting nondepolarizing neuromuscular blockers” (1999).
